{"source": "paper PMC5218480", "about": "(PLoS ONE, 2017)", "tested_on": "MV-4-11 cells", "test": "Gene expression microarray analysis (Affymetrix PrimeView) and GSEA", "assay_type": "cell-based, human", "design": "RFU PODN (11730768_x_at) / Fold change /veh PODN (11730768_x_at) / RFU LINC00158 (11744669_a_at) / Fold change /veh LINC00158 (11744669_a_at) / RFU DUSP10 (11751237_a_at) / Fold change /veh DUSP10 (11751237_a_at) / RFU ID3 (11757404_x_at) / Fold change /veh ID3 (11757404_x_at) / RFU PLEKHG5 (11737974_s_at) / Fold change /veh PLEKHG5 (11737974_s_at) / RFU LRRC4B (11730491_at) / Fold change /veh LRRC4B (11730491_at) / RFU GIMAP4 (11747438_a_at) / Fold change /veh GIMAP4 (11747438_a_at) / RFU KRT8 (11758183_x_at) / Fold change /veh KRT8 (11758183_x_at) / RFU CNN1 (11734310_a_at) / Fold change /veh CNN1 (11734310_a_at) / RFU VPS37D (11726825_at) / Fold change /veh VPS37D (11726825_at) / RFU C10orf10 (11716522_x_at) / Fold change /veh C10orf10 (11716522_x_at) / RFU KIR2DL2 /// KIR2DL4 /// KIR2DL5A /// KIR2DL5B /// KIR2DS1 /// KIR2DS2 /// KIR2DS3 /// KIR2DS4 /// KIR3DL3 /// KIR3DL3 /// KIR3DS1 (11738374_at) / Fold change /veh KIR2DL2 /// KIR2DL4 /// KIR2DL5A /// KIR2DL5B /// KIR2DS1 /// KIR2DS2 /// KIR2DS3 /// KIR2DS4 /// KIR3DL3 /// KIR3DL3 /// KIR3DS1 (11738374_at) / RFU C1QL1 (11718748_at) / Fold change /veh C1QL1 (11718748_at) / RFU TMPRSS4 (11747572_a_at) / Fold change /veh TMPRSS4 (11747572_a_at) / RFU HAMP (11756126_x_at) / Fold change /veh HAMP (11756126_x_at) / RFU RNFT2 (11725882_a_at) / Fold change /veh RNFT2 (11725882_a_at) / RFU NR4A2 (11747474_a_at) / Fold change /veh NR4A2 (11747474_a_at) / RFU ABCC12 (11746883_a_at) / Fold change /veh ABCC12 (11746883_a_at) / RFU TMEM136 (11760407_x_at) / Fold change /veh TMEM136 (11760407_x_at) / RFU CLDN22 /// WWC2 (11732394_at) / Fold change /veh CLDN22 /// WWC2 (11732394_at) / RFU HLA-DPB1 (11760878_x_at) / Fold change /veh HLA-DPB1 (11760878_x_at) / RFU SPINT1 (11716480_a_at) / Fold change /veh SPINT1 (11716480_a_at) / RFU GAP43 (11754022_s_at) / Fold change /veh GAP43 (11754022_s_at) / RFU A4GNT (11735810_at) / Fold change /veh A4GNT (11735810_at) / RFU PRB3 (11715151_x_at) / Fold change /veh PRB3 (11715151_x_at) / RFU TUBB4B (11761932_at) / Fold change /veh TUBB4B (11761932_at) / RFU CAPN14 (11732068_a_at) / Fold change /veh CAPN14 (11732068_a_at) / RFU TMCC2 (11721928_a_at) / Fold change /veh TMCC2 (11721928_a_at) / RFU IRGQ (11745062_a_at) / Fold change /veh IRGQ (11745062_a_at) / RFU FAM174B (11720279_a_at) / Fold change /veh FAM174B (11720279_a_at) / RFU TMPRSS4 (11748680_a_at) / Fold change /veh TMPRSS4 (11748680_a_at) / RFU FAM212B (11763350_a_at) / Fold change /veh FAM212B (11763350_a_at) / RFU PLEKHG5 (11743358_a_at) / Fold change /veh PLEKHG5 (11743358_a_at) / RFU ZSCAN30 (11745921_a_at) / Fold change /veh ZSCAN30 (11745921_a_at) / RFU CMKLR1 (11741424_a_at) / Fold change /veh CMKLR1 (11741424_a_at) / RFU LOC101060620 /// MAPK8IP1 (11723275_at) / Fold change /veh LOC101060620 /// MAPK8IP1 (11723275_at) / RFU SPTSSB (11747773_x_at) / Fold change /veh SPTSSB (11747773_x_at) / RFU PRSS12 (11739890_at) / Fold change /veh PRSS12 (11739890_at) / RFU BIN1 (11741810_x_at) / Fold change /veh BIN1 (11741810_x_at) / RFU WNT11 (11732464_a_at) / Fold change /veh WNT11 (11732464_a_at) / RFU C10orf10 (11716521_a_at) / Fold change /veh C10orf10 (11716521_a_at) / RFU C5orf56 (11738089_at) / Fold change /veh C5orf56 (11738089_at) / RFU CYB561 (11721691_x_at) / Fold change /veh CYB561 (11721691_x_at) / RFU ANKRD19P (11752326_a_at) / Fold change /veh ANKRD19P (11752326_a_at) / RFU OR2T12 /// OR2T33 /// OR2T8 (11738714_s_at) / Fold change /veh OR2T12 /// OR2T33 /// OR2T8 (11738714_s_at) / RFU VCAN (11748164_a_at) / Fold change /veh VCAN (11748164_a_at) / RFU JSRP1 (11732532_at) / Fold change /veh JSRP1 (11732532_at) / RFU KRTAP10-11 (11738290_x_at) / Fold change /veh KRTAP10-11 (11738290_x_at) / RFU MYO3A (11730013_a_at) / Fold change /veh MYO3A (11730013_a_at) / RFU EBF3 (11725865_a_at) / Fold change /veh EBF3 (11725865_a_at) / RFU CAMK2N1 (11719241_x_at) / Fold change /veh CAMK2N1 (11719241_x_at) / RFU C5orf56 (11738088_a_at) / Fold change /veh C5orf56 (11738088_a_at) / RFU OLFML3 (11715873_a_at) / Fold change /veh OLFML3 (11715873_a_at) / RFU LOC100653217 /// NTM (11731650_a_at) / Fold change /veh LOC100653217 /// NTM (11731650_a_at) / RFU MAPK11 (11762145_a_at) / Fold change /veh MAPK11 (11762145_a_at) / RFU FIZ1 (11724087_x_at) / Fold change /veh FIZ1 (11724087_x_at) / RFU OASL (11726364_x_at) / Fold change /veh OASL (11726364_x_at) / RFU SOX15 (11748057_x_at) / Fold change /veh SOX15 (11748057_x_at) / RFU CD79A (11719716_a_at) / Fold change /veh CD79A (11719716_a_at) / RFU HIST1H1D (11736915_at) / Fold change /veh HIST1H1D (11736915_at) / RFU CASKIN2 (11723855_a_at) / Fold change /veh CASKIN2 (11723855_a_at) / RFU LOC730098 (11760151_x_at) / Fold change /veh LOC730098 (11760151_x_at) / RFU OR4N2 (11742367_at) / Fold change /veh OR4N2 (11742367_at) / RFU PRRT2 (11749266_a_at) / Fold change /veh PRRT2 (11749266_a_at) / RFU SNX32 (11753110_a_at) / Fold change /veh SNX32 (11753110_a_at) / RFU CDHR5 (11726645_a_at) / Fold change /veh CDHR5 (11726645_a_at) / RFU RCAN1 (11760418_a_at) / Fold change /veh RCAN1 (11760418_a_at) / RFU FAM167A (11723789_a_at) / Fold change /veh FAM167A (11723789_a_at) / RFU FAM26E (11764081_at) / Fold change /veh FAM26E (11764081_at) / RFU ISYNA1 (11749810_s_at) / Fold change /veh ISYNA1 (11749810_s_at) / RFU ACY1 (11761880_at) / Fold change /veh ACY1 (11761880_at) / RFU 11764098_at / Fold change /veh 11764098_at / RFU SAMD14 (11745864_x_at) / Fold change /veh SAMD14 (11745864_x_at) / RFU NPB (11741838_a_at) / Fold change /veh NPB (11741838_a_at) / RFU TMPRSS6 (11731388_a_at) / Fold change /veh TMPRSS6 (11731388_a_at) / RFU KRTAP10-2 (11738614_at) / Fold change /veh KRTAP10-2 (11738614_at) / RFU ARHGAP8 /// PRR5-ARHGAP8 (11727945_x_at) / Fold change /veh ARHGAP8 /// PRR5-ARHGAP8 (11727945_x_at) / RFU KRTAP5-7 /// NADSYN1 (11734609_at) / Fold change /veh KRTAP5-7 /// NADSYN1 (11734609_at) / RFU RASL12 (11751679_a_at) / Fold change /veh RASL12 (11751679_a_at) / RFU CDKN2B (11736163_a_at) / Fold change /veh CDKN2B (11736163_a_at) / RFU PRF1 (11729649_at) / Fold change /veh PRF1 (11729649_at) / RFU, ZNF638 /// ZNF638-IT1 / Fold change vs veh, ZNF638 /// ZNF638-IT1 / RFU, PANK3 / Fold change vs veh, PANK3 / RFU, SH3YL1 / Fold change vs veh, SH3YL1 / RFU, ZEB2 / Fold change vs veh, ZEB2 / RFU, NRIP1 / Fold change vs veh, NRIP1 / RFU, PTTG1IP / Fold change vs veh, PTTG1IP / RFU, CAPN2 / Fold change vs veh, CAPN2 / RFU, MED14 / Fold change vs veh, MED14 / RFU, SNORA58 / Fold change vs veh, SNORA58 / RFU, C1orf63 / Fold change vs veh, C1orf63 / RFU, LRRFIP1 / Fold change vs veh, LRRFIP1 / RFU, NDUFAF7 / Fold change vs veh, NDUFAF7 / RFU, SLC12A2 / Fold change vs veh, SLC12A2 / RFU, IBTK / Fold change vs veh, IBTK / RFU, ESF1 / Fold change vs veh, ESF1 / Fold change vs veh, TMEM50B / RFU, TAOK1 / Fold change vs veh, TAOK1 / RFU, ACBD3 / Fold change vs veh, ACBD3 / RFU, TMA16 / Fold change vs veh, TMA16 / RFU, RWDD3 / Fold change vs veh, RWDD3 / RFU, BCAT1 / Fold change vs veh, BCAT1 / RFU, EDEM3 / Fold change vs veh, EDEM3 / RFU, TMEM33 / Fold change vs veh, TMEM33 / RFU, WDR75 / Fold change vs veh, WDR75 / RFU, AHCTF1 / Fold change vs veh, AHCTF1 / RFU, TFRC / Fold change vs veh, TFRC / RFU, ZDHHC17 / Fold change vs veh, ZDHHC17 / RFU, NOM1 / Fold change vs veh, NOM1 / RFU, ARL8B / Fold change vs veh, ARL8B / RFU, ZBTB11 / Fold change vs veh, ZBTB11 / RFU, TAMM41 / Fold change vs veh, TAMM41 / RFU, KIAA1704 /// LOC100996395 / Fold change vs veh, KIAA1704 /// LOC100996395 / RFU, ING1 / Fold change vs veh, ING1 / RFU, TRMT61B / Fold change vs veh, TRMT61B / RFU, FUBP3 / Fold change vs veh, FUBP3 / RFU, TP53 / Fold change vs veh, TP53 / RFU, TNKS2 / Fold change vs veh, TNKS2 / RFU, ZFP14 / Fold change vs veh, ZFP14 / RFU, ACTR2 / Fold change vs veh, ACTR2 / RFU, PPP3R1 / Fold change vs veh, PPP3R1 / RFU, PIK3R1 / Fold change vs veh, PIK3R1 / RFU, HNRNPA1 / Fold change vs veh, HNRNPA1 / RFU, RNF170 / Fold change vs veh, RNF170 / RFU, ZNF28 / Fold change vs veh, ZNF28 / RFU, RNGTT / Fold change vs veh, RNGTT / RFU, OGT / Fold change vs veh, OGT / RFU, BRD1 / Fold change vs veh, BRD1 / RFU, MARS / Fold change vs veh, MARS / RFU, ZNF655 / Fold change vs veh, ZNF655 / RFU, FAHD1 / Fold change vs veh, FAHD1 / RFU, BDP1 / Fold change vs veh, BDP1 / RFU, LRRCC1 / Fold change vs veh, LRRCC1 / RFU, ARID1A / Fold change vs veh, ARID1A / RFU, ZNF146 / Fold change vs veh, ZNF146 / RFU, ZNF330 / Fold change vs veh, ZNF330 / RFU, GPN3 / Fold change vs veh, GPN3 / RFU, C9orf123 / Fold change vs veh, C9orf123 / RFU, N4BP2L2 / Fold change vs veh, N4BP2L2 / RFU, ARFIP1 / Fold change vs veh, ARFIP1 / RFU, FAM179B / Fold change vs veh, FAM179B / RFU, BCL10 / Fold change vs veh, BCL10 / RFU, UHRF1BP1L / Fold change vs veh, UHRF1BP1L / RFU, BET1 / Fold change vs veh, BET1 / RFU, CNOT2 / Fold change vs veh, CNOT2 / RFU, ZNF268 / Fold change vs veh, ZNF268 / Fold change vs veh, ZNF507 / RFU, DGCR2 / Fold change vs veh, DGCR2 / RFU, WDSUB1 / Fold change vs veh, WDSUB1 / Fold change vs veh, HSP90B1 /// MIR3652 / RFU, ADSS / Fold change vs veh, ADSS / RFU, GK / Fold change vs veh, GK / RFU, ZNF148 / Fold change vs veh, ZNF148 / RFU, TAF9 / Fold change vs veh, TAF9 / RFU, SLC1A5 / Fold change vs veh, SLC1A5 / RFU, SLMO2 / Fold change vs veh, SLMO2 / RFU, ABCC4 / Fold change vs veh, ABCC4 / RFU, LOC101060439 /// RAP1B / Fold change vs veh, LOC101060439 /// RAP1B / RFU, RFX7 / Fold change vs veh, RFX7 / RFU, GTPBP10 / Fold change vs veh, GTPBP10 / RFU, CNEP1R1 / Fold change vs veh, CNEP1R1 / RFU, BIVM-ERCC5 /// ERCC5 / Fold change vs veh, BIVM-ERCC5 /// ERCC5 / RFU, ILF3 / Fold change vs veh, ILF3 / RFU 11762660_at / Fold change /veh 11762660_at / RFU VCAN (11757783_s_at) / Fold change /veh VCAN (11757783_s_at) / RFU DDX43 (11728927_at) / Fold change /veh DDX43 (11728927_at) / RFU KRT8 (11758188_x_at) / Fold change /veh KRT8 (11758188_x_at) / RFU NKD1 (11759106_at) / Fold change /veh NKD1 (11759106_at) / RFU SRD5A1 (11742802_a_at) / Fold change /veh SRD5A1 (11742802_a_at) / RFU TPSAB1 /// TPSB2 (11721975_s_at) / Fold change /veh TPSAB1 /// TPSB2 (11721975_s_at) / RFU GSTM3 (11746129_a_at) / Fold change /veh GSTM3 (11746129_a_at) / RFU IL23R (11737362_x_at) / Fold change /veh IL23R (11737362_x_at) / RFU TMEM51 (11727254_a_at) / Fold change /veh TMEM51 (11727254_a_at) / RFU PIWIL2 (11732686_x_at) / Fold change /veh PIWIL2 (11732686_x_at) / RFU ORM1 (11744905_x_at) / Fold change /veh ORM1 (11744905_x_at) / RFU CCDC152 (11743942_at) / Fold change /veh CCDC152 (11743942_at) / RFU ECM1 (11717891_a_at) / Fold change /veh ECM1 (11717891_a_at) / RFU IL23R (11748794_a_at) / Fold change /veh IL23R (11748794_a_at) / RFU TNFAIP8L3 (11732012_x_at) / Fold change /veh TNFAIP8L3 (11732012_x_at) / RFU MBOAT4 (11741988_at) / Fold change /veh MBOAT4 (11741988_at) / RFU 11764193_at / Fold change /veh 11764193_at / RFU TMEM53 (11763286_at) / Fold change /veh TMEM53 (11763286_at) / RFU MAGEB2 (11727129_at) / Fold change /veh MAGEB2 (11727129_at) / RFU TMEM200A (11744735_a_at) / Fold change /veh TMEM200A (11744735_a_at) / RFU CCDC152 (11751479_a_at) / Fold change /veh CCDC152 (11751479_a_at) / RFU FAM211A (11726209_a_at) / Fold change /veh FAM211A (11726209_a_at) / RFU RGS16 (11746705_a_at) / Fold change /veh RGS16 (11746705_a_at) / RFU VCAN (11755009_s_at) / Fold change /veh VCAN (11755009_s_at) / RFU RHOB (11743442_s_at) / Fold change /veh RHOB (11743442_s_at) / RFU RGS16 (11720943_a_at) / Fold change /veh RGS16 (11720943_a_at) / RFU RGS16 (11720944_at) / Fold change /veh RGS16 (11720944_at) / RFU, VPS4B / Fold change vs veh, VPS4B / RFU, CREB1 / Fold change vs veh, CREB1 / RFU, DNAJC13 / Fold change vs veh, DNAJC13 / RFU, GNAQ / Fold change vs veh, GNAQ / RFU, CDK5R1 / Fold change vs veh, CDK5R1 / RFU, ZRANB3 / Fold change vs veh, ZRANB3 / RFU, CUL4A / Fold change vs veh, CUL4A / RFU, CCNY / Fold change vs veh, CCNY / RFU, UFL1 / Fold change vs veh, UFL1 / RFU, COG3 / Fold change vs veh, COG3 / RFU, DIAPH2 / Fold change vs veh, DIAPH2 / RFU, SKA2 / Fold change vs veh, SKA2 / RFU, AFF3 / Fold change vs veh, AFF3 / RFU, LMF1 / Fold change vs veh, LMF1 / RFU, IPO11 / Fold change vs veh, IPO11 / RFU, DFFB / Fold change vs veh, DFFB / RFU, FOXP1 / Fold change vs veh, FOXP1 / RFU, CARD8 / Fold change vs veh, CARD8 / RFU, STRN3 / Fold change vs veh, STRN3 / RFU, ADK / Fold change vs veh, ADK / RFU, RASSF2 / Fold change vs veh, RASSF2 / RFU, WIPF1 / Fold change vs veh, WIPF1 / RFU, LARP1B / Fold change vs veh, LARP1B / RFU, RASA1 / Fold change vs veh, RASA1 / RFU, RB1 / Fold change vs veh, RB1 / RFU, PPFIA1 / Fold change vs veh, PPFIA1 / RFU, MAT2A / Fold change vs veh, MAT2A / RFU, CCT5 / Fold change vs veh, CCT5 / RFU, WDR92 / Fold change vs veh, WDR92 / RFU, CUX1 / Fold change vs veh, CUX1 / RFU, TTC7A / Fold change vs veh, TTC7A / RFU, TMEM135 / Fold change vs veh, TMEM135 / RFU, DEPTOR / Fold change vs veh, DEPTOR / RFU, CPM / Fold change vs veh, CPM / RFU, DNAJB6 / Fold change vs veh, DNAJB6 / RFU, CACNA2D3 / Fold change vs veh, CACNA2D3 / RFU, DTX4 / Fold change vs veh, DTX4 / RFU, TFCP2 / Fold change vs veh, TFCP2 / RFU, GMCL1 /// GMCL1P1 / Fold change vs veh, GMCL1 /// GMCL1P1 / RFU, AEBP2 / Fold change vs veh, AEBP2 / RFU, SNHG1 /// SNORD22 /// SNORD25 /// SNORD26 /// SNORD27 /// SNORD28 /// SNORD29 /// SNORD31 / Fold change vs veh, SNHG1 /// SNORD22 /// SNORD25 /// SNORD26 /// SNORD27 /// SNORD28 /// SNORD29 /// SNORD31 / Fold change (Aza/veh), C12orf56 (ProbeSet 11735607_a_at) / Fold change (ACY-1035/veh), C12orf56 (ProbeSet 11735607_a_at) / Fold change (Aza/veh), FGFR1OP (ProbeSet 11751329_s_at) / Fold change (ACY-1035/veh), FGFR1OP (ProbeSet 11751329_s_at) / Fold change (Aza/veh), VPS36 (ProbeSet 11739960_a_at) / Fold change (ACY-1035/veh), VPS36 (ProbeSet 11739960_a_at) / RFU SYPL1 (11715823_x_at) / Fold change /veh SYPL1 (11715823_x_at) / RFU IGFBP7 (11715501_s_at) / Fold change /veh IGFBP7 (11715501_s_at) / RFU REEP3 (11722064_at) / Fold change /veh REEP3 (11722064_at) / RFU IGLL1 (11728026_x_at) / Fold change /veh IGLL1 (11728026_x_at): dose or concentration left out as unconfirmed", "details": "MV-4-11 cells, 48 hours", "data": [{"smiles": "Nc1ccc(-c2cccs2)cc1NC(=O)c1ccc2c(c1)cc(C1CC1)n2CCN1CCOCC1", "note": "[ACY-1035]", "values": [{"measurement": "Fold change /veh VPS37D (11726825_at)", "result": 1.08}]}]}
